Reference: US20260294874A1, “COMPOSITIONS COMPRISING MODULATORS OF RIBONUCLEOPROTEIN GRANULE FORMATION AND DISSOLUTION AND METHODS OF USE THEREOF” (University of Virginia Patent Foundation, priority 2023, published 2026)

Tested on: G3BP1 Y40E-rescued G3BP KO cells
Assay: SG formation in G3BP KO U20S cells rescued with G3BP1 Y40E
Assay type: cell-based
Settings: 25 μM, 2 h
Procedure: G3BP KO and rescue studies. U20S G3BP1/2 double knockout (G3BP KO) cell-line was a kind gift from the C. Brangwynne lab (Princeton University, Princeton, New Jersey, United States of America) and generated as previously described in Kedersha et al., 2016. G3BP KO cells were seeded at 9.0×10^4 in a 24-well plate with 12-mm glass coverslips. Next day, the cells were transfected with […] vectors with 1 μg/mL tetracycline and LIPOFECTAMINE™ 3000 brand transfection reagent according to the manufacturer's protocol (Thermo Fisher Scientific). 20 hours post-transfection, the cells were treated with 25 μM SuTEx probes for 2 hours in DMEM medium without FBS. The cells were then treated with 75 μM NaAsO2 for 30 minutes and fixed with 3% paraformaldehyde in PBS for 15 minutes at RT and washed with PBS twice. The same protocols for IF of HeLa cells and quantification of G3BP1-positive SGs described above were followed thereafter.
To determine whether the cell biological effects mediated by HHS-166 were Y40-dependent, we expressed recombinant G3BP1 WT or Y40 mutant in previously established G3BP1/2 double knockout U20S (G3BP KO) cells (Kedersha et al., 2016; Sanders et al., 2020) and evaluated the resulting effects on SG response to [COMPOUND LEFT OUT]. […]

In the case of `COc1ccc(S(=O)(=O)n2cc(C3CCCCC3)nn2)cc1` [HHS-166, 4-Cyclohexyl-1-((4-methoxyphenyl)sulfonyl)-111-1,2,3-triazole], the “effect on SG formation (in words)” value is reported as “insensitive to HHS-166 treatment and lost and not Y40E-”.
